Experimental data taken from ChEMBL document CHEMBL2016455, “5-Benzothiazole substituted pyrimidine derivatives as HCV replication (replicase) inhibitors” (Bioorg Med Chem Lett, 2012).

Columns and labels:
Liver = test: Drug uptake in rat liver per mg tissue at 10 mg/kg, po after 6 hrs; type: ADME, organism-based; design: dose 10 mg/kg, route oral; conditions: in vivo
[1] = Cytotoxicity against human hepatoma cells assessed as decrease in RNA level after 3 days by RT-PCR analysis; type: cell-based; conditions: human hepatoma cells
Hepatitis C virus = test: Antiviral activity against Hepatitis C virus isolate con1 1b infected in human hepatoma cells replicon cells after 3 days by RT-PCR analysis; type: functional, organism-based, Hepacivirus hominis, genotype 1b Con1; conditions: Hepatitis C virus, genotype 1b Con1, 72 h
[2] = AUC (0 to 6 hrs) in rat at 10 mg/kg, po; type: ADME, organism-based; design: time < 6 hr, dose 10 mg/kg, route oral; conditions: plasma
[3] = Cytotoxicity against human hepatoma cells after 3 days by MTS assay; type: cell-based; conditions: human hepatoma cells

Row | Structure (SMILES) | Drug uptake (Liver) | CC50 at 72 h [1] | EC50 (Hepatitis C virus) | AUC(0-t) at 6 h [2] | CC50 at 72 h [3]
1 | Cc1nc(NCC2CCC2)nc(N[C@@H]2C[C@H](CO)[C@@H](O)[C@H]2O)c1-c1nc2ccccc2s1 | 150 ng/g | > 25 µM | 0.25 µM | 500 nM·h | > 25 µM
2 | CCc1nc(N(C)C)nc(N[C@@H]2C[C@H](CO)[C@@H](O)[C@H]2O)c1-c1nc2ccccc2s1 |  | > 25 µM | 13 µM |  | > 25 µM
3 | COCCNc1nc(C)c(-c2nc3ccccc3s2)c(N[C@@H]2C[C@H](CO)[C@@H](O)[C@H]2O)n1 | 875 ng/g | 21 µM | 0.035 µM | 5900 nM·h | 15 µM
4 | CCOCCNc1nc(C)c(-c2nc3ccccc3s2)c(N[C@@H]2C[C@H](CO)[C@@H](O)[C@H]2O)n1 | 400 ng/g | 18 µM | 0.035 µM | 2400 nM·h | 18 µM
5 | Cc1nc(NCCOC(C)C)nc(N[C@@H]2C[C@H](CO)[C@@H](O)[C@H]2O)c1-c1nc2ccccc2s1 | 130 ng/g | 8 µM | 0.02 µM | 900 nM·h | 7 µM
6 | CCOC(=O)NCCNc1nc(C)c(-c2nc3ccccc3s2)c(N[C@@H]2C[C@H](CO)[C@@H](O)[C@H]2O)n1 | 63 ng/g | 12 µM | 0.04 µM | 300 nM·h | 19 µM
7 | Cc1nc(NCCNC(=O)NC(C)(C)C)nc(N[C@@H]2C[C@H](CO)[C@@H](O)[C@H]2O)c1-c1nc2ccccc2s1 |  | > 25 µM | 0.9 µM |  | > 25 µM
8 | Cc1nc(NCCNS(C)(=O)=O)nc(N[C@@H]2C[C@H](CO)[C@@H](O)[C@H]2O)c1-c1nc2ccccc2s1 |  | > 25 µM | 0.26 µM |  | > 25 µM
9 | Cc1nc(NCCN2CCOCC2)nc(N[C@@H]2C[C@H](CO)[C@@H](O)[C@H]2O)c1-c1nc2ccccc2s1 | 370 ng/g | 25 µM | 0.04 µM | 200 nM·h | 25 µM
10 | OC[C@H]1C[C@@H](Nc2nc(NCC(F)(F)F)nc(C3CC3)c2-c2nc3ccccc3s2)[C@H](O)[C@@H]1O | 12800 ng/g | > 25 µM | 0.7 µM | 12800 nM·h | > 25 µM
11 | Cc1nc(N[C@@H](C)C(F)(F)F)nc(N[C@@H]2C[C@H](CO)[C@@H](O)[C@H]2O)c1-c1nc2ccccc2s1 | 6570 ng/g | > 25 µM | 0.14 µM | 13000 nM·h | > 25 µM
12 | Cc1nc(N[C@H](C)C(F)(F)F)nc(N[C@@H]2C[C@H](CO)[C@@H](O)[C@H]2O)c1-c1nc2ccccc2s1 |  | 21 µM | 0.1 µM |  | 19 µM
13 | Cc1nc(NCCC(F)(F)F)nc(N[C@@H]2C[C@H](CO)[C@@H](O)[C@H]2O)c1-c1nc2ccccc2s1 | 1080 ng/g | 9 µM | 0.03 µM | 5300 nM·h | 9 µM
14 | Cc1nc(NCCCC(F)(F)F)nc(N[C@@H]2C[C@H](CO)[C@@H](O)[C@H]2O)c1-c1nc2ccccc2s1 | 2230 ng/g | 3 µM | 0.03 µM | 2100 nM·h | 4 µM
15 | Cc1nc(Nc2ccccc2)nc(N[C@@H]2C[C@H](CO)[C@@H](O)[C@H]2O)c1-c1nc2ccccc2s1 | 970 ng/g | > 25 µM | 0.28 µM | 1600 nM·h | > 25 µM
16 | Cc1nc(Nc2ccncc2)nc(N[C@@H]2C[C@H](CO)[C@@H](O)[C@H]2O)c1-c1nc2ccccc2s1 |  | 7 µM | 0.33 µM |  | 7 µM
17 | Cc1nc(Nc2nccs2)nc(N[C@@H]2C[C@H](CO)[C@@H](O)[C@H]2O)c1-c1nc2ccccc2s1 |  | 15 µM | 0.77 µM |  | 13 µM
18 | Cc1nc(Nc2ncco2)nc(N[C@@H]2C[C@H](CO)[C@@H](O)[C@H]2O)c1-c1nc2ccccc2s1 |  | > 25 µM | 4.5 µM |  | > 25 µM
19 | Cc1nc(NCc2ccccc2)nc(N[C@@H]2C[C@H](CO)[C@@H](O)[C@H]2O)c1-c1nc2ccccc2s1 | 430 ng/g | 9 µM | 0.03 µM | 2200 nM·h | 7 µM
20 | Cc1nc(NCc2cccs2)nc(N[C@@H]2C[C@H](CO)[C@@H](O)[C@H]2O)c1-c1nc2ccccc2s1 | 180 ng/g | 6 µM | 0.006 µM | 500 nM·h | 5 µM
21 | Cc1nc(NCc2ccsc2)nc(N[C@@H]2C[C@H](CO)[C@@H](O)[C@H]2O)c1-c1nc2ccccc2s1 | 75 ng/g | 6 µM | 0.015 µM | 200 nM·h | 4 µM
22 | Cc1nc(NCc2nccs2)nc(N[C@@H]2C[C@H](CO)[C@@H](O)[C@H]2O)c1-c1nc2ccccc2s1 | 150 ng/g | 23 µM | 0.03 µM | 500 nM·h | 21 µM
23 | Cc1nc(NCc2ccccn2)nc(N[C@@H]2C[C@H](CO)[C@@H](O)[C@H]2O)c1-c1nc2ccccc2s1 | 125 ng/g | 13 µM | 0.03 µM | 3400 nM·h | 18 µM
24 | Cc1nc(NCc2cccnc2)nc(N[C@@H]2C[C@H](CO)[C@@H](O)[C@H]2O)c1-c1nc2ccccc2s1 | 10 ng/g | 5 µM | 0.015 µM | 20 nM·h | 11 µM
25 | Cc1nc(NCc2ccncc2)nc(N[C@@H]2C[C@H](CO)[C@@H](O)[C@H]2O)c1-c1nc2ccccc2s1 | 100 ng/g | 7 µM | 0.03 µM | 100 nM·h | 9 µM
